US20150018384A1, “TREATMENT FOR HIGH CHOLESTEROL” (FibroGen, Inc., priority 2012, published 2015)
Entries after “also recorded” stand apart in the source; their conditions may differ. Marks after values point to notes of the source that are not given here.

Legend:
[1] = test system: subjects with end-stage renal disease (ESRD) receiving maintenance hemodialysis; assay: Study 2: phase 2 study of compound A vs EPO in ESRD subjects on maintenance hemodialysis; type: in vivo, human
Experimental: Total cholesterol and lipid panels were measured by standard procedures.
Total cholesterol was measured from all subjects in Study 1 or Study 2 as part of the chemistry panel at prespecified time points.
Frozen serum samples, collected from subjects in Study 1 or Study 2, were selected for the lipid panel analysis based on the following criteria: 1) with matched baseline (D1W1) and; 2) at least one other time point. The complete lipid panel includes: total cholesterol (TC), HDL, LDL-measured, Triglycerides and VLDL (Calculated). Ratio of HDL/LDL or LDL/HDL were analyzed.
A total of n=20 subjects were selected and assayed for the complete lipid panel as described above. Subjects on this study protocol were not required to fast nor have any diet restrictions.

[2] = test system: Cholesterol Biosynthesis Genes in the Mouse Liver; assay: Microarray expression of cholesterol biosynthesis genes in mouse liver; type: in vivo; conditions: 90 mg/kg oral
Outline: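 Mouse livers taken 4 h or 8 h post-treatment; RNA from paired animals pooled and hybridized to mouse 430A 2.0 arrays, GC-RMA processed, outlier arrays removed by PCA. Values are fold-change versus timepoint-matched vehicle controls from the same study; below 1.0 means reduced liver RNA.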

[3] = test system: ApoE deficient mice; assay: Cholesterol reduction and erythrogenesis in ApoE deficient mice, 4 weeks; type: in vivo, mouse; conditions: orally 2, 20, 60 or 100 mg/kg three times a week for 4 weeks, n=8/group
Experimental: Ten-week-old male apoE knockout mice (Jackson Laboratories, Bar Harbor, Me.) were fed a normal chow diet (0.02% cholesterol, 13.5% fat by weight; LabDiet). […] After 2 weeks of acclimatization, whole blood was collected for baseline measurement before administration of test reagents. […] The animals were sacrificed at end of study.
Total cholesterol and hemoglobin were measured weekly.

[4] = test system: cynomolgus monkeys; assay: Cholesterol levels after repeated oral administration in monkey toxicity studies; type: in vivo, cynomolgus monkey
Experimental: During these studies monkeys were fasted prior to each blood collection. Plasma samples were then evaluated at pre-dose and at different time-points for levels of total cholesterol.

[5] = test system: subjects with end stage renal disease (ESRD); assay: ESRD subjects switched from epoetin alfa to Compound A or continued on epoetin alfa; type: in vivo, human
[6] = test system: Sprague-Dawley rats; assay: Single oral dose lipid panel in rats; type: in vivo, rat; conditions: fasted rats, single oral dose 60 mg/kg, after 24 hours
Experimental: Blood samples were collected at baseline (pre-dose) and approximately 24 hours following dosing to determine levels of cholesterol, HDL, LDL and the LDL/HDL ratio.

[7] = test system: subjects with end stage renal disease (ESRD); assay: ESRD subjects switched from epoetin alfa to Compound A or continued on epoetin alfa; type: in vivo, human; conditions: six weeks
Experimental: Mean total cholesterol change for the Compound A-treated subjects (all cohorts) was a decrease of 15 mg/dL compared to an increase of 18 mg/dL for the epoetin alfa treated subjects.

[8] = BL total cholesterol >200 mg/dL, visit D1W1 (baseline)
[9] = BL total cholesterol >200 mg/dL, visit W9
[10] = BL total cholesterol ≦200 mg/dL, visit D1W1 (baseline)
[11] = BL total cholesterol ≦200 mg/dL, visit W9
[12] = n=20, 9 weeks vs baseline, FIG. 8A
[13] = baseline, Compound A 3 cohorts n=74, Epoetin alfa n=22

Cc1nc(C(=O)NCC(=O)O)c(O)c2ccc(Oc3ccccc3)cc12 [Compound A, [(4-Hydroxy-1-methyl-7-phenoxy-isoquinoline-3-carbonyl)-amino]-acetic acid]
reduction in total cholesterol by baseline total cholesterol ≦200 or >200 mg/dL ([1]; 19-week study, FIGS. 6A and B): appears to be larger for the subjects with higher cholesterol at BL
LDL [1, 8]: 203.40
LDL change from BL [1, 8]: 0.00
TC [1, 8]: 275.80
TC change from BL [1, 8]: 0.00
LDL [1, 9]: 164.20
LDL change from BL [1, 9]: −39.20
TC [1, 9]: 239.20
TC change from BL [1, 9]: −36.60
LDL [1, 10]: 81.20
LDL change from BL [1, 10]: 0.00
TC [1, 10]: 157.90
TC change from BL [1, 10]: 0.00
LDL [1, 11]: 62.20
LDL change from BL [1, 11]: −19.00
TC [1, 11]: 128.20
TC change from BL [1, 11]: −29.70
hemoglobin levels ([1]; ESRD patients on dialysis, 0.8 to 3.0 mg/kg three times a week): effectively corrected hemoglobin levels
total cholesterol, subjects with or without prior history of hyperlipidemia and/or hypercholesterolemia ([1]; Study 2 (6 weeks), FIG. 4): reduced the total cholesterol level of subjects in similar fashion
HDL, lipid panel [1, 12]: slight decrease
LDL, lipid panel [1, 12]: significant reduction
VLDL, lipid panel [1, 12]: significant reduction
total cholesterol, lipid panel [1, 12]: significant reduction
triglycerides, lipid panel [1, 12]: significant reduction
change in total cholesterol from baseline over time ([1]; treated for 19 weeks, FIG. 2): significant decrease in total cholesterol
3-hydroxy-3-methylglutaryl-Coenzyme A reductase (Hmgcr) RNA expression ([2]; 4 h): 0.45 fold-change
3-hydroxy-3-methylglutaryl-Coenzyme A synthase 1 (Hmgcs1) RNA expression ([2]; 4 h): 0.94 fold-change
7-dehydrocholesterol reductase (Dhcr7) RNA expression ([2]; 4 h): 1.03 fold-change
NAD(P) dependent steroid dehydrogenase-like (Nsdhl) RNA expression ([2]; 4 h): 0.86 fold-change
acetyl-Coenzyme A acetyltransferase 2 (Acat2) RNA expression ([2]; 4 h): 1.24 fold-change
cytochrome P450, family 51 (Cyp51) RNA expression ([2]; 4 h): 0.69 fold-change
farnesyl diphosphate farnesyl transferase 1 (Fdft1) RNA expression ([2]; 4 h): 0.68 fold-change
farnesyl diphosphate synthetase (Fdps) RNA expression ([2]; 4 h): 0.87 fold-change
isopentenyl-diphosphate delta isomerase (Idi1) RNA expression ([2]; 4 h): 0.73 fold-change
lanosterol synthase (Lss) RNA expression ([2]; 4 h): 0.74 fold-change
mevalonate (diphospho) decarboxylase (Mvd) RNA expression ([2]; 4 h): 0.68 fold-change
mevalonate kinase (Mvk) RNA expression ([2]; 4 h): 1.00 fold-change
phosphomevalonate kinase (Pmvk) RNA expression ([2]; 4 h): 1.27 fold-change
squalene epoxidase (Sqle) RNA expression ([2]; 4 h): 0.61 fold-change
sterol-C4-methyl oxidase-like (Sc4mol) RNA expression ([2]; 4 h): 0.63 fold-change
sterol-C5-desaturase (fungal ERG3, delta-5-desaturase) homolog (S. cerevisae) (Sc5d) RNA expression ([2]; 4 h): 1.09 fold-change
3-hydroxy-3-methylglutaryl-Coenzyme A reductase (Hmgcr) RNA expression ([2]; 8 h): 0.43 fold-change
3-hydroxy-3-methylglutaryl-Coenzyme A synthase 1 (Hmgcs1) RNA expression ([2]; 8 h): 0.38 fold-change
7-dehydrocholesterol reductase (Dhcr7) RNA expression ([2]; 8 h): 0.61 fold-change
NAD(P) dependent steroid dehydrogenase-like (Nsdhl) RNA expression ([2]; 8 h): 0.62 fold-change
acetyl-Coenzyme A acetyltransferase 2 (Acat2) RNA expression ([2]; 8 h): 0.50 fold-change
cytochrome P450, family 51 (Cyp51) RNA expression ([2]; 8 h): 0.45 fold-change
farnesyl diphosphate farnesyl transferase 1 (Fdft1) RNA expression ([2]; 8 h): 0.43 fold-change
farnesyl diphosphate synthetase (Fdps) RNA expression ([2]; 8 h): 0.36 fold-change
isopentenyl-diphosphate delta isomerase (Idi1) RNA expression ([2]; 8 h): 0.51 fold-change
lanosterol synthase (Lss) RNA expression ([2]; 8 h): 0.44 fold-change
mevalonate (diphospho) decarboxylase (Mvd) RNA expression ([2]; 8 h): 0.37 fold-change
mevalonate kinase (Mvk) RNA expression ([2]; 8 h): 0.53 fold-change
phosphomevalonate kinase (Pmvk) RNA expression ([2]; 8 h): 0.63 fold-change
squalene epoxidase (Sqle) RNA expression ([2]; 8 h): 0.43 fold-change
sterol-C4-methyl oxidase-like (Sc4mol) RNA expression ([2]; 8 h): 0.46 fold-change
sterol-C5-desaturase (fungal ERG3, delta-5-desaturase) homolog (S. cerevisae) (Sc5d) RNA expression ([2]; 8 h): 0.38 fold-change
doses with statistically significant decreases in total cholesterol (% change) [3]: 100 mg/kg
hemoglobin compared to vehicle-treated [3]: statistically significant increases in hemoglobin compared to vehicle-treated at the 60 mg/kg and 100 mg/kg doses; also recorded: significant increase in hemoglobin for the 60 mg/kg and 100 mg/kg doses
total cholesterol (% change from baseline) compared to vehicle-treated [3]: lower total cholesterol levels; also recorded: significant percent change in total cholesterol from baseline for the 100 mg/kg dose
total cholesterol levels ([4]; 22-week study, intermittent oral dosing 1, 10, 30 and 40 mg/kg, day 28 to day 152): dose-dependent decrease in cholesterol levels
total cholesterol levels ([4]; 22-week study, intermittent oral dosing 1, 10, 30 and 40 mg/kg, day 28 to day 152, listed as compound A): dose dependent decrease in total cholesterol
total cholesterol levels ([4]; 28-Day study, daily oral dosing 1, 10 and 30 mg/kg, day 28): dose-dependent decrease in cholesterol levels
total cholesterol levels ([4]; 28-Day study, daily oral dosing 1, 10 and 30 mg/kg, day 28, listed as compound A): dose dependent decrease in total cholesterol
cholesterol ([4]; additional monkey study, up to one year): decreases in cholesterol were observed and maintained for up to one year
LDL cholesterol change ([5]; Mean (±SD), six weeks, Compound A orally three times a week (n=74) or continued epoetin alfa (n=22)): −25 (22)** mg/dL
Mean change in LDL-C, decrease ([5]; all cohorts, six weeks): 25 mg/dL
Mean BL LDL Cholesterol [5, 13]: 101.71 mg/dL
Mean BL Total Cholesterol [5, 13]: 171.11 mg/dL
mean total cholesterol over the course of treatment ([5]; both groups stratified by BL total cholesterol ≦200 or >200 mg/dL, FIG. 16): reduction
mean LDL-C over the course of treatment ([5]; both groups stratified by BL total cholesterol ≦200 or >200 mg/dL, FIG. 17): reduction
HDL-C ([5]; six weeks): showed a decrease
HDL decrease from baseline [6]: 21 ± 7 mg/dL
LDL decrease from baseline [6]: 11 ± 3 mg/dL
total cholesterol decrease from baseline [6]: 26 ± 9 mg/dL
Total Cholesterol change ([7]; Mean (±SD), Compound A orally three times a week (n=74) or continued epoetin alfa (n=22)): −15 (38)** mg/dL
Mean total cholesterol change, decrease ([7]; all cohorts): 15 mg/dL
